Data taken from the NIST ThermoML archive (doi:10.1016/j.jct.2011.02.008).

Test: xn = mol fraction of the nth substance listed
Settings: Liquid, Vibrating tube method

COC(=O)c1ccccc1 [methyl benzoate] + C1CCCCC1
mass density [kg/m3]
Settings	x1 = 0.0985	x1 = 0.1963	x1 = 0.2939	x1 = 0.3942	x1 = 0.4955	x1 = 0.596	x1 = 0.6975	x1 = 0.7993	x1 = 0.8982
278.15 K, 100 kPa	823.9	855.7	887.6	919.6	951.4	983.4	1014.3	1043.9	1072.7
278.15 K, 1000 kPa	824.5	856.4	888.3	920.2	952	984	1014.9	1044.4	1073.2
278.15 K, 5000 kPa	827.6	859.3	891.2	923	954.8	986.7	1017.4	1046.9	1075.6
278.15 K, 10000 kPa	831.2	863	894.7	926.4	958	989.9	1020.5	1049.8	1078.5
278.15 K, 15000 kPa	834.6	866.3	898	929.7	961.2	993	1023.5	1052.8	1081.3
278.15 K, 20000 kPa	838	869.6	901.3	932.8	964.3	996	1026.4	1055.6	1084.1
278.15 K, 25000 kPa	841.2	872.8	904.4	935.9	967.3	998.9	1029.3	1058.3	1086.7
278.15 K, 30000 kPa	844.4	875.9	907.4	938.9	970.2	1001.7	1032	1061	1089.3
278.15 K, 35000 kPa	847.4	878.9	910.4	941.8	973	1004.5	1034.7	1063.6	1091.9
278.15 K, 40000 kPa	850.5	881.8	913.3	944.6	975.8	1007.2	1037.4	1066.2	1094.4
278.15 K, 45000 kPa	–	884.6	916.1	947.4	978.5	1009.9	1040	1068.7	1096.9
278.15 K, 50000 kPa	–	887.4	918.8	950	981.1	1012.5	1042.5	1071.2	1099.3
278.15 K, 55000 kPa	–	890.1	921.5	952.7	983.7	1015	1045	1073.7	1101.7
278.15 K, 60000 kPa	–	892.6	923.9	955.1	986.3	1017.4	1047.3	1075.9	1103.8
288.15 K, 100 kPa	814.3	846.1	878	909.9	941.8	973.8	1004.7	1034.2	1063.1
288.15 K, 1000 kPa	815	846.9	878.7	910.6	942.4	974.5	1005.3	1034.8	1063.7
288.15 K, 5000 kPa	818.2	850	881.8	913.6	945.3	976.6	1008	1037.5	1066.2
288.15 K, 10000 kPa	822	853.8	885.5	917.2	948.8	980.7	1011.3	1040.6	1069.2
288.15 K, 15000 kPa	825.8	857.4	889.1	920.7	952.2	983.9	1014.4	1043.6	1072.2
288.15 K, 20000 kPa	829.2	860.9	892.5	924	955.4	987.1	1017.5	1046.6	1075
288.15 K, 25000 kPa	832.7	864.3	895.8	927.2	958.6	990.1	1020.5	1049.5	1077.9
288.15 K, 30000 kPa	836	867.5	899	930.3	961.6	993.1	1023.4	1052.3	1080.6
288.15 K, 35000 kPa	839.1	870.7	902.1	933.4	964.6	996	1026.2	1055	1083.3
288.15 K, 40000 kPa	842.2	873.7	905.1	936.3	967.5	998.8	1028.9	1057.7	1085.9
288.15 K, 45000 kPa	845.2	876.7	908	939.2	970.3	1001.6	1031.6	1060.3	1088.4
288.15 K, 50000 kPa	848.1	879.6	910.9	942	973	1004.3	1034.3	1062.9	1090.9
288.15 K, 55000 kPa	850.9	882.4	913.6	944.7	975.7	1006.9	1036.8	1065.5	1093.4
288.15 K, 60000 kPa	853.5	885	916.2	947.2	978.2	1009.3	1039.2	1067.8	1095.9
298.15 K, 100 kPa	804.8	836.5	868.4	900.3	932.2	964.2	995.1	1024.7	1053.6
298.15 K, 1000 kPa	805.6	837.3	869.2	901	932.9	964.9	995.8	1025.3	1054.2
298.15 K, 5000 kPa	809	840.7	872.5	904.2	935.9	967.9	998.6	1028.1	1056.9
298.15 K, 10000 kPa	813.1	844.7	876.3	908	939.6	971.4	1002	1031.4	1060
298.15 K, 15000 kPa	817.1	848.6	880.1	911.7	943.2	974.8	1005.4	1034.6	1063.1
298.15 K, 20000 kPa	820.8	852.2	883.7	915.2	946.6	978.2	1008.5	1037.7	1066.1
298.15 K, 25000 kPa	824.4	855.8	887.2	918.6	949.9	981.4	1011.7	1040.7	1069
298.15 K, 30000 kPa	827.9	859.2	890.5	921.9	953.1	984.5	1014.7	1043.6	1071.9
298.15 K, 35000 kPa	831.2	862.5	893.8	925	956.2	987.5	1017.7	1046.5	1074.7
298.15 K, 40000 kPa	834.4	865.7	896.9	928.1	959.2	990.5	1020.5	1049.3	1077.4
298.15 K, 45000 kPa	837.5	868.8	900	931.1	962.1	993.4	1023.3	1052.1	1080.1
298.15 K, 50000 kPa	840.5	871.8	902.9	934	965	996.2	1026.1	1054.7	1082.7
298.15 K, 55000 kPa	843.4	874.7	905.8	936.9	967.8	999	1028.8	1057.4	1085.3
298.15 K, 60000 kPa	846.1	877.3	908.6	939.5	970.3	1001.4	1031.3	1059.9	1087.8
308.15 K, 100 kPa	795.4	827	858.8	890.8	922.6	954.7	985.6	1015.2	1044.1
308.15 K, 1000 kPa	796.2	827.8	859.6	891.5	923.4	955.4	986.3	1015.9	1044.7
308.15 K, 5000 kPa	799.8	831.2	863.1	894.9	926.6	958.5	989.3	1018.7	1047.5
308.15 K, 10000 kPa	804.3	835.7	867.2	898.9	930.5	962.3	992.9	1022.2	1050.8
308.15 K, 15000 kPa	808.3	839.8	871.2	902.8	934.2	965.9	996.4	1025.6	1054.1
308.15 K, 20000 kPa	812.3	843.6	875	906.5	937.8	969.4	999.8	1028.8	1057.2
308.15 K, 25000 kPa	816.1	847.3	878.7	910	941.3	972.8	1003	1032	1060.3
308.15 K, 30000 kPa	819.7	850.9	882.2	913.5	944.6	976	1006.2	1035	1063.3
308.15 K, 35000 kPa	823.2	854.4	885.6	916.8	947.9	979.2	1009.3	1038	1066.2
308.15 K, 40000 kPa	826.5	857.7	888.9	920	951	982.3	1012.3	1041	1069
308.15 K, 45000 kPa	829.8	861	892.1	923.2	954.1	985.3	1015.2	1043.8	1071.8
308.15 K, 50000 kPa	833	864.1	895.1	926.2	957.1	988.2	1018.1	1046.6	1074.6
308.15 K, 55000 kPa	836	867.1	898.2	929.2	960	991.1	1020.9	1049.3	1077.2
308.15 K, 60000 kPa	838.8	869.5	900.9	931.9	962.7	993.7	1023.4	1051.9	1079.9
318.15 K, 100 kPa	785.8	817.4	849.2	881.3	913.1	945.2	976.1	1005.8	1034.6
318.15 K, 1000 kPa	786.8	818.3	850.1	882.1	913.9	945.9	976.8	1006.5	1035.2
318.15 K, 5000 kPa	790.7	822	853.8	885.7	917.3	949.3	980	1009.5	1038.2
318.15 K, 10000 kPa	795.2	826.6	858.2	889.9	921.4	953.2	983.8	1013.1	1041.7
318.15 K, 15000 kPa	799.7	830.9	862.4	893.9	925.4	957	987.5	1016.7	1045.1
318.15 K, 20000 kPa	803.8	835.1	866.4	897.8	929.1	960.7	991	1020.1	1048.4
318.15 K, 25000 kPa	807.8	839	870.2	901.5	932.7	964.2	994.4	1023.3	1051.6
318.15 K, 30000 kPa	811.6	842.8	–	–	–	–	–	–	–
